What was measured:
active nuclear β-catenin = experiment: TOPFlash/FOPFlash reporter assay for active nuclear β-catenin in C3H10T1/2; format: cell-based, mouse; settings: for increase in normalized TOPFlash signal compared to untreated controls: after 24 hr treatment, C3H10T1/2
Description: FIG. 3 Schematic representation of 3 hr C3H10T1/2 transfection with TOP/FOPFlash DNA plasmid followed by 24 hr exposure to BIO-containing media and subsequent analysis for active nuclear β-catenin over 5 days (A). Active nuclear β-catenin concentrations (TOPFlash) show a BIO-mediated dose-dependent increase immediately after BIO treatment as compared to control plasmid (FOPFlash) (B). Increased active nuclearβ-catenin concentrations persists for 3 days after BIO-treatment before returning to basal levels (C).
The β-catenin TOPFlash reporter plasmid and the FOPFlash mutant control (Addgene Plasmid #12456, and Addgene Plasmid #12457 were obtained in the form of DH5alpha bacterial stabs. Bacteria were streaked onto ampicillin-containing agar plates and grown overnight at 37° C. A single colony was selected, grown in 50 ml Luria-Bertani (LB) broth with 100 μg/ml ampicillin (Gibco) to select for ampicillin resistant colonies, and cultured at 37° C. under constant agitation for 24 hrs. Bacteria were centrifuged to form a pellet and plasmid DNA was purified using a Plasmid Midi Kit (Qiagen). Plasmid DNA was digested using EcoRI and PvuI restriction endonucleases (New England Biolabs) and fragments were separated on a 0.8% agarose gel. Molecular weights were verified using a standard DNA ladder (HyperLadder I, BioLine).
C3H10T1/2 mouse embryonic fibroblasts were seeded in multiple 48-well plates and treated with BIO containing growth media for 24 hrs to analyze the effects of β-catenin activity over time. […]
Luciferase activity was measured prior to BIO treatment (day 0), as well as on days 1, 2, 3, 4, and 5 after the 24 hr BIO treatment period. […] To each 96-well 25 μl of Luciferase Assay Reagent (Promega, Madison, Wis.) was added and total luminescence was measure immediately using a BioTek Synergy Mx plate-reader. Total luminescence was normalized to cellular DNA concentration using a Quant-iT PicoGreen dsDNA Assay Kit (Invitrogen) to account for well-to-well variability in cell density.

[1] = system: markers of undifferentiated stem cells, Sox2, Nanog, and Oct4; experiment: RT-PCR of Sox2, Nanog, Oct4 in PEG-encapsulated BIO-treated hMSCs; format: cell-based, human; settings: for Nanog gene expression relative to untreated controls / Oct4 gene expression relative to untreated controls / Sox2 gene expression relative to untreated controls: 5 μM BIO
Procedure: RT-PCR was used to assess gene expression of hMSCs over time. At days: 0 (before BIO treatment), 1, 3, 6, 19, 29, 34, 37, and 41, samples were lysed and total RNA was isolated (ENZA Total RNA Kit, Omega). Reverse transcription was performed using the iScript cDNA Synthesis Kit (Bio-Rad). The reverse transcription reaction was incubated at 25° C. for 5 min, 42° C. for 30 min, and terminated at 85° C. for 5 min. PCR was performed using a CFX96 Real-Time PCR System (Bio-Rad), monitoring sybrgreen products (SsoFastEvaGreen Master Mix, Bio-Rad). Primers for β-actin, sex determining region Y-box 2 (Sox2), Nanog homobox (Nanog), and octamer-binding transcription factor 4 (Oct4), core-binding factor subunit alpha-1 (Cbfa1, also known as Runx2), sex determining region Y-box 9 (Sox9), and peroxisome proliferator-activated receptor gamma (PPARγ) were used (Table 2). The PCR parameters used were as follows: hold at 95° C. for 5 min, followed by 40 cycles of: 95° C. for 15 sec denaturation, 60° C. (β-actin, Sox2, Sox9), or 57° C. (Nanog, Oct4, Cbfa1), or 55° C. (PPARγ) for 60 sec annealing, and 72° C. for 20 sec extension. Threshold cycle (CT) analysis was used to quantify PCR products normalized to the cellular housekeeping gene β-actin. Relative gene quantification was performed using the Pfaffl Method, taking into account the variation between primer efficiencies.
A 10 wt % solution of PEGDM was prepared in phosphate buffered saline (PBS) with 2.0 mM acryloyl-PEG-RGDS. The photoinitiator lithium phenyl-2,4,6-trimethylbenzoylphosphinate (LAP) was synthesized using conventional techniques and added at a final concentration of 0.05 wt %. Trypsinized hMSCs were centrifuged to form pellets and counted. The PEG macromer solution was added to the cell pellet, and volumes were adjusted to achieve a final cell concentration of 25 million cells/mL. Using a sterile 1 mL syringe with the tip removed as a mold, 40 μL of PEG/cell solution was added and exposed to long-wavelength 365 nm light (5 mW/cm^2 intensity) for 10 min at room temperature. After photopolymerization was complete, the cell/hydrogel disks were removed from the syringes and placed in 24-well tissue culture plates (Greiner Bio-One, Monroe, N.C.) with growth media. The constructs were cultured up to 3 weeks at 37° C. and 5% CO2 with media changes occurring every three days.
Encapsulated hMSC viability, BIO treatment, and assessment of gene expression was performed as described in Section 2.3 with exception of cell lysate collection. For assessment of gene expression hMSC-PEG constructs were homogenized in lysis buffer and centrifuged to pellet polymerized PEG. The supernatant was then collected for analysis.

O=C1Nc2cc(Br)ccc2/C1=C1/Nc2ccccc2/C1=N\O [BIO, 6-bromoindirubin-3′-oxime]
increase in normalized TOPFlash signal compared to untreated controls (active nuclear β-catenin; 2 μM BIO): 71 fold
increase in normalized TOPFlash signal compared to untreated controls (active nuclear β-catenin; 5 μM BIO): 106 fold
persistence of elevated TOPFlash signaling after BIO was removed, before returning to basal levels (active nuclear β-catenin; C3H10T1/2, after 24 hr BIO treatment): three
time at which Sox2, Nanog, and Oct4 expression returned to basal levels ([1]; PEG hydrogel-encapsulated hMSCs): ~18 days
Nanog gene expression relative to untreated controls ([1]; day 1, PEG-encapsulated): 2.4 fold
Oct4 gene expression relative to untreated controls ([1]; day 1, PEG-encapsulated): 3.5 fold
Sox2 gene expression relative to untreated controls ([1]; day 1, PEG-encapsulated): 2.2 fold
Nanog gene expression relative to untreated controls ([1]; day 12, PEG-encapsulated): 2.7 fold
Oct4 gene expression relative to untreated controls ([1]; day 12, PEG-encapsulated): 4.3 fold
Sox2 gene expression relative to untreated controls ([1]; day 12, PEG-encapsulated): 4.1 fold

Source: patent publication US9193954B2, “Methods and compositions for mesenchymal stem cell proliferation” (priority 2011, dated 2015)
